Results taken from PubChem BioAssay AID1963833 (Molecular Pharmacology Branch, DTP, NCI, 2024).
pIC50: −log10 of the molar value. “And” between values parts separate entries of the source, which are not always exact repeats. Equal entries are not always repeated.

Test system: 883617-216-R-J1-PDC complex spheroid viability
Test: Anticancer human tumor 883617-216-R-J1-PDC patient-derived bladder carcinoma cell line growth inhibition [POLQ]
Conditions: for viability, T/C: stronger effect = lower value
Experimental: Multicellular complex tumor spheroid response to Polymerase (POL) inhibitors (novobiocin, ART-558, RP6685) in combination with a variety of drugs and investigational agents in selected tumor cell lines
The POL inhibitors (novobiocin, ART-558, and RP6685) were evaluated both individually and in combination with standard of care and investigational anticancer small molecules within a complex spheroid model of solid tumors. . Complex spheroids include a stromal component modeled by human endothelial cells (HUVEC) and fibroblasts modeled by human mesenchymal stem cells (MSCs). The concentration ranges selected for each drug and investigational agent were based upon clinically achievable concentrations if the clinical Cmax of the agent was known.
Compounds. The drugs and investigational agents: novobiocin (NSC847541), ART-558 (NSC835418), RP-6685 (NSC848927), peposertib (NSC802822), ceralasertib (NSC780249), elimusertib (NSC800525), camonsertib (NSC841442), AZD-1390 (NSC803789), olaparib (NSC753686), talazoparib (NSC767125), rucaparib (NSC756644), sotorasib (NSC818433), MRTX-1133 (NSC836407), SN-38 (NSC673596), topotecan (NSC609699), epotoside (NSC141540), doxorubicin (NSC123127), gemcitabine (NSC613327), 5-fluorouracil (NSC19893), paclitaxel (NSC125973), vemurafenib (NSC761431), MSA-2 (NSC828583), SN-011 (NSC837082), adavosertib (NSC754352), prexasertib (NSC758257), carboplatin (NSC241240) and oxaliplatin (NSC266046), were obtained from the National Cancer Institute (NCI) Developmental Therapeutics Program Chemical Repository (21). The FDA-approved anticancer drug set is available from the Developmental Therapeutics Program at https://dtp.cancer.gov/organization/dscb/obtaining/. […] The stock solutions were prepared in dimethyl sulfoxide (DMSO, Sigma-Aldrich, St. Louis, MO, cat. D2650), except for the platinum compounds which were prepared in saline (Quality Biological, Gaithersburg, MD, cat. 114-055-101), at 800-fold the tested concentration and stored at -70 degrees C prior to their use. All drugs and investigational agents were tested over a range starting from a high concentration at or near the clinical Cmax and decreasing in half-log increments. If the clinical Cmax for an agent had not been determined, the highest concentration tested was 10 microM, except for SN-38, which was tested at a high concentration of 1 microM.
Cell Culture. All cells were maintained in an incubator at 37 degrees C and 5% CO2 with 95% humidity. The PDC lines were cultured according to standard operating procedures established by the NCI PDMR (https://pdmr.cancer.gov). Table 3 of the manuscript, lists the cell lines along with the number of the three cell types plated to form the mct-spheroids and media for tumor cell growth. After thawing, all PDC lines, except 997537-175-T-J1-PDC and 415267-285-R-J2-PDC, were cultured in Matrigel-coated flasks prepared with a working solution of 1X Ham's F-12 nutrient mix, without supplementation (Thermo Fisher Scientific, cat. 11765054), 100 U/mL penicillin-streptomycin (Thermo Fisher Scientific, cat. 15140122), and 2.5% Matrigel (Corning Inc., Corning, NY, cat. 354248) for the first three passages. The two PDC lines 997537-175-T-J1-PDC and 415267-285-R-J2-PDC were cultured on uncoated flasks. The 857933-349-R-J2-PDC line was cultured in 6C/Colon 1B media containing advanced DMEM/F-12 (Thermo Fisher Scientific, cat. 12634028), 10 mM HEPES (Thermo Fisher Scientific, cat. 15630080), 1X GlutaMAX supplement (Thermo Fisher Scientific, cat. 35050061), 0.1 mg/mL primocin (InvivoGen, San Diego, CA, cat. ant-pm-2), 10% defined fetal bovine serum, heat inactivated (HyClone Laboratories Inc., Logan, UT, cat. SH30070.03HI), 50% L-WRN conditioned media (ATCC, cat. CRL-3276), 1.25 mM N-Acetyl-L-cysteine (Sigma-Aldrich, cat. A9165), 10 mM nicotinamide (Sigma-Aldrich, cat. N0636), 1X B-27 supplement (Thermo Fisher Scientific, cat. 17504044), 1X N-2 supplement (Thermo Fisher Scientific, cat. […]
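Also: spheroids exposed to compounds for seven days before readout.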
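For viability, T/C in this document: 100% = DMSO vehicle control viability.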

Question: For `COc1cccc(OCCCN)c1-c1cc(Nc2cnc(C#N)cn2)n[nH]1`, which viability, T/C (compound 0.00316 µM) is on record?
Answer: 98.3% and 89.8% and 106%

Question: And the viability, T/C (compound 0.01 µM)?
Answer: 69.9% and 82.7% and 93.2%

Question: And the viability, T/C (compound 0.0316 µM)?
Answer: 52.6% and 55.5% and 49%

Question: And the viability, T/C (compound 0.1 µM)?
Answer: 40.9% and 44.4% and 45.3%

Question: What about the viability, T/C (compound 0.316 µM) of the same compound?
Answer: 34.2% and 34.5% and 41.7%

Question: What about the viability, T/C (compound 1 µM) of the same compound?
Answer: 25% and 30.4% and 35.5%

Question: What about the pIC50 (curve of compound) of the same compound?
Answer: 7.39 and 7.24 and 7.51

Question: `CC1COCCN1c1cc(C2(S(C)(=N)=O)CC2)nc(-c2ccnc3[nH]ccc23)n1` (centres undefined) + Cc1cccc(N(C)C(=O)C2C(O)CCN2c2nc(C)cc(C(F)(F)F)c2C#N)c1 was tested. Which pIC50 (curve of first compound, second compound 0.0316 µM) did it give?
Answer: 5.48

Question: And the pIC50 (curve of first compound, second compound 0.1 µM)?
Answer: 5.54

Question: What about the pIC50 (curve of first compound, second compound 0.316 µM) of the same compound?
Answer: 5.56

Question: What about the pIC50 (curve of first compound, second compound 1 µM) of the same compound?
Answer: 5.56

Question: And the pIC50 (curve of first compound, second compound 3.16 µM)?
Answer: 5.54

Question: And the pIC50 (curve of first compound, second compound 10 µM)?
Answer: 5.22

Question: What about the viability, T/C (second compound 0.0316 µM, first compound 0.0316 µM) of the same compound?
Answer: 97.7%

Question: And the viability, T/C (second compound 0.0316 µM, first compound 0.1 µM)?
Answer: 91.2%

Question: What about the viability, T/C (second compound 0.0316 µM, first compound 0.316 µM) of the same compound?
Answer: 92.8%

Question: What about the viability, T/C (second compound 0.0316 µM, first compound 1 µM) of the same compound?
Answer: 77.5%

Question: And the viability, T/C (second compound 0.0316 µM, first compound 3.16 µM)?
Answer: 50.9%

Question: And the viability, T/C (second compound 0.0316 µM, first compound 10 µM)?
Answer: 30.8%

Question: And the viability, T/C (second compound 0.1 µM, first compound 0.0316 µM)?
Answer: 102%

Question: And the viability, T/C (second compound 0.1 µM, first compound 0.1 µM)?
Answer: 89.9%

Question: What about the viability, T/C (second compound 0.1 µM, first compound 0.316 µM) of the same compound?
Answer: 87.7%

Question: What about the viability, T/C (second compound 0.1 µM, first compound 1 µM) of the same compound?
Answer: 65.2%

Question: What about the viability, T/C (second compound 0.1 µM, first compound 3.16 µM) of the same compound?
Answer: 48.6%

Question: And the viability, T/C (second compound 0.1 µM, first compound 10 µM)?
Answer: 36.1%

Question: And the viability, T/C (second compound 0.316 µM, first compound 0.0316 µM)?
Answer: 88.2%

Question: What about the viability, T/C (second compound 0.316 µM, first compound 0.1 µM) of the same compound?
Answer: 96.4%

Question: What about the viability, T/C (second compound 0.316 µM, first compound 0.316 µM) of the same compound?
Answer: 94.7%

Question: What about the viability, T/C (second compound 0.316 µM, first compound 1 µM) of the same compound?
Answer: 77.8%

Question: And the viability, T/C (second compound 0.316 µM, first compound 3.16 µM)?
Answer: 46.6%

Question: What about the viability, T/C (second compound 0.316 µM, first compound 10 µM) of the same compound?
Answer: 38.6%

Question: What about the viability, T/C (second compound 1 µM, first compound 0.0316 µM) of the same compound?
Answer: 108%

Question: And the viability, T/C (second compound 1 µM, first compound 0.1 µM)?
Answer: 93.5%

Question: And the viability, T/C (second compound 1 µM, first compound 0.316 µM)?
Answer: 84.3%

Question: What about the viability, T/C (second compound 1 µM, first compound 1 µM) of the same compound?
Answer: 68.4%

Question: What about the viability, T/C (second compound 1 µM, first compound 3.16 µM) of the same compound?
Answer: 43.9%

Question: What about the viability, T/C (second compound 1 µM, first compound 10 µM) of the same compound?
Answer: 37.2%

Question: And the viability, T/C (second compound 3.16 µM, first compound 0.0316 µM)?
Answer: 105%

Question: What about the viability, T/C (second compound 3.16 µM, first compound 0.1 µM) of the same compound?
Answer: 94.1%

Question: What about the viability, T/C (second compound 3.16 µM, first compound 0.316 µM) of the same compound?
Answer: 93.1%

Question: And the viability, T/C (second compound 3.16 µM, first compound 1 µM)?
Answer: 65.8%

Question: What about the viability, T/C (second compound 3.16 µM, first compound 3.16 µM) of the same compound?
Answer: 50%

Question: What about the viability, T/C (second compound 3.16 µM, first compound 10 µM) of the same compound?
Answer: 38%

Question: And the viability, T/C (second compound 10 µM, first compound 0.0316 µM)?
Answer: 119%

Question: And the viability, T/C (second compound 10 µM, first compound 0.1 µM)?
Answer: 91.4%

Question: What about the viability, T/C (second compound 10 µM, first compound 0.316 µM) of the same compound?
Answer: 112%

Question: And the viability, T/C (second compound 10 µM, first compound 1 µM)?
Answer: 74.4%

Question: What about the viability, T/C (second compound 10 µM, first compound 3.16 µM) of the same compound?
Answer: 67.6%

Question: And the viability, T/C (second compound 10 µM, first compound 10 µM)?
Answer: 37.8%
